# Test results: paper PMC6522524 (Nature Communications, 2019)
# Several values for one entry are separate records, joined by “and”; a condition that tells them apart may be missing. Equal values may be shown once. Read-outs that look alike come from different tables or passages of the source.
# Assays:
# [1] = molecular target: T1, Cp149 (truncated HBV core protein) (Hepatitis B virus genotype D subtype ayw, UniProt P03146); assay: biochemical; details: for Relative intensity, anti core-native gel, individual samples: Sample1-2, listed as 6-Cycloxexyl-4-methyl-2-pyrone
# T1 construct: Cp149 (amino acids 1–149) is a truncated form of the HBV core protein; made in house; host or cells: Escherichia coli
# [2] = test system: total HBV core protein in Huh-7 cells; format: cell-based, Hepatitis B virus; details: for Relative Core mRNA level(Folds), individual samples: Sample1-3; for total core protein: treatment time increased
# Protocol: the indicated times. The cells were lysed and assembled HBV core particles were isolated by sucrose step-gradient ultracentrifugation, resolved on 1 % agarose gels, and subjected to immunoblot analysis with anti-HBV core antibody. Total intracellular HBV core protein was also determined by immunoblot analysis in the cell lysates. Core mRNA levels were measured by quantitative RT-PCR. The data
# [3] = molecular target: HBV core protein (pCDNA3-Core, Y118 wild-type) in Huh-7 cells (Hepatitis B virus genotype C, UniProt P0C6H6); assay: cell-based; format: cell-based; details: for activity at 0.1 µM: Huh-7, Y118, 0.1 μM; for activity at 1 µM: Huh-7, Y118, 1 μM; for activity at 5 µM: Huh-7, Y118, 5 μM
# [4] = Sample1-3, read-out: Relative intensity (Folds), intracellular capsid, individual samples
# [5] = read-out: Relative intensity (Folds), intracellular capsid, AVERAGE
# Sequence of HBV core protein (pCDNA3-Core, Y118 wild-type) in Huh-7 cells (P0C6H6 whole entry): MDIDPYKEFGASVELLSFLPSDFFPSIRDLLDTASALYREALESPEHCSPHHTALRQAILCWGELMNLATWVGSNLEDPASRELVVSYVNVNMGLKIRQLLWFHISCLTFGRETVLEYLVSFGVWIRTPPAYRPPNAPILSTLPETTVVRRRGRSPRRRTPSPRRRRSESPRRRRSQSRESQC
# T1 sequence (P03146 1-149): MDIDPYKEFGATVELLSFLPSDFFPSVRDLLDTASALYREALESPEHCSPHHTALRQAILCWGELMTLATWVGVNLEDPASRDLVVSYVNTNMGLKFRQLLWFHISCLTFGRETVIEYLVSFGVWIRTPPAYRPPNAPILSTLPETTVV
molecule,measurement,setting,value
GLS-4,"Relative intensity (Folds), in vitro core assembly, individual samples",[1],1.0339 Folds and 1.019 Folds and 0.9819 Folds and 1.079 Folds and 1.058 Folds and 1.102 Folds and 0.3491 Folds and 0.342 Folds and 0.3462 Folds and 0.1267 Folds and 0.1171 Folds and 0.123 Folds and 0.01326 Folds and 0.01176 Folds and 0.01165 Folds and 0 Folds (6×)
same,"Relative Core mRNA level(Folds), AVERAGE","[2]; 1.5day, 0.1 μM",0.9973 Folds
same,"Relative Core mRNA level(Folds), individual samples","[2]; 1.5day, 0.1 μM",1.007 Folds and 1.003 Folds and 0.9824 Folds
same,"Relative Core mRNA level(Folds), AVERAGE","[2]; 1.5day, 0.5 μM",1.0017 Folds
same,"Relative Core mRNA level(Folds), individual samples","[2]; 1.5day, 0.5 μM",0.9742 Folds and 0.987 Folds and 1.044 Folds
same,"Relative Core mRNA level(Folds), AVERAGE","[2]; 1.5day, 1 μM",0.9997 Folds
same,"Relative Core mRNA level(Folds), individual samples","[2]; 1.5day, 1 μM",1.008 Folds and 0.9861 Folds and 1.005 Folds
same,"Relative Core mRNA level(Folds), AVERAGE","[2]; 1.5day, 5 μM",1.008 Folds
same,"Relative Core mRNA level(Folds), individual samples","[2]; 1.5day, 5 μM",1.002 Folds and 0.9963 Folds and 1.025 Folds
same,"Relative Core mRNA level(Folds), AVERAGE","[2]; 1.5day, 10 μM",0.9997 Folds
same,"Relative Core mRNA level(Folds), individual samples","[2]; 1.5day, 10 μM",0.9972 Folds and 0.9916 Folds and 1.01 Folds
same,"Relative Core mRNA level(Folds), AVERAGE","[2]; 2.5day, 0.1 μM",0.9923 Folds
same,"Relative Core mRNA level(Folds), individual samples","[2]; 2.5day, 0.1 μM",1.007 Folds and 0.9944 Folds and 0.976 Folds
same,"Relative Core mRNA level(Folds), AVERAGE","[2]; 2.5day, 0.5 μM",0.9898 Folds
same,"Relative Core mRNA level(Folds), individual samples","[2]; 2.5day, 0.5 μM",1 Folds and 0.9926 Folds and 0.9769 Folds
same,"Relative Core mRNA level(Folds), AVERAGE","[2]; 2.5day, 1 μM",0.9998 Folds
same,"Relative Core mRNA level(Folds), individual samples","[2]; 2.5day, 1 μM",1.0179 Folds and 1.005 Folds and 0.9769 Folds
same,"Relative Core mRNA level(Folds), AVERAGE","[2]; 2.5day, 5 μM",0.9873 Folds
same,"Relative Core mRNA level(Folds), individual samples","[2]; 2.5day, 5 μM",0.9861 Folds and 0.9889 Folds and 0.987 Folds
same,"Relative Core mRNA level(Folds), AVERAGE","[2]; 2.5day, 10 μM",1.003 Folds
same,"Relative Core mRNA level(Folds), individual samples","[2]; 2.5day, 10 μM",1.007 Folds and 1.001 Folds
same,"Relative Core mRNA level(Folds), AVERAGE","[2]; 4.5day, 0.1 μM",0.9929 Folds
same,"Relative Core mRNA level(Folds), individual samples","[2]; 4.5day, 0.1 μM",1.007 Folds and 0.9944 Folds and 0.9778 Folds
same,"Relative Core mRNA level(Folds), AVERAGE","[2]; 4.5day, 0.5 μM",0.9886 Folds
same,"Relative Core mRNA level(Folds), individual samples","[2]; 4.5day, 0.5 μM",1 Folds and 0.9889 Folds and 0.9769 Folds
same,"Relative Core mRNA level(Folds), AVERAGE","[2]; 4.5day, 1 μM",0.9986 Folds
same,"Relative Core mRNA level(Folds), individual samples","[2]; 4.5day, 1 μM",1.0179 Folds and 1.001 Folds and 0.9769 Folds
same,"Relative Core mRNA level(Folds), AVERAGE","[2]; 4.5day, 5 μM",0.9904 Folds
same,"Relative Core mRNA level(Folds), individual samples","[2]; 4.5day, 5 μM",0.9861 Folds and 0.9981 Folds and 0.987 Folds
same,"Relative Core mRNA level(Folds), AVERAGE","[2]; 4.5day, 10 μM",0.9982 Folds
same,"Relative Core mRNA level(Folds), individual samples","[2]; 4.5day, 10 μM",1.007 Folds and 0.9916 Folds and 0.9963 Folds
same,total core protein,[2],decreased
"Cc1cc(C2CCCCC2)oc(=O)c1 [Compound 3, 6-Cyclohexyl-4-methyl-2–pyrone]",activity at 0.1 µM,[3]; [4],109%
same,activity at 0.1 µM,[3]; [5],119%
same,activity at 0.5 µM,"[3]; Huh-7, Y118, 0.5 μM, read-out: Relative intensity (Folds), intracellular capsid, AVERAGE",113%
same,activity at 1 µM,[3]; [4],103%
same,activity at 1 µM,[3]; [5],106%
same,activity at 5 µM,[3]; [4],110%
same,activity at 5 µM,[3]; [5],115%
same,activity at 10 µM,"[3]; Huh-7, Y118, 10 μM, read-out: Relative intensity (Folds), intracellular capsid, AVERAGE",115%
same,HBV capsid assembly inhibitory activity in vivo (Fig. 3d),"[3]; Huh-7, pCDNA3-Core",blocked its HBV capsid assembly inhibitory activity
same,"Relative intensity (Folds), intracellular capsid, individual samples","[3]; Y118, 0.1 μM, Sample1-3, 0.1 µM",1.2405 Folds and 1.2516 Folds
same,"Relative intensity (Folds), intracellular capsid, individual samples","[3]; Y118, 0.5 μM, Sample1-3, 0.5 µM",0.9808 Folds and 1.196 Folds and 1.214 Folds
same,"Relative intensity (Folds), intracellular capsid, individual samples","[3]; Y118, 1 μM, Sample1-3, 1 µM",1.107 Folds and 1.042 Folds
same,"Relative intensity (Folds), intracellular capsid, individual samples","[3]; Y118, 5 μM, Sample1-3, 5 µM",1.192 Folds and 1.143 Folds
same,"Relative intensity (Folds), intracellular capsid, individual samples","[3]; Y118, 10 μM, Sample1-3, 10 µM",0.9807 Folds and 1.199 Folds and 1.28 Folds
same,HBV capsid assembly inhibitory activity in vitro (Supplementary Fig. 8),[1]; Cp149,blocked its HBV capsid assembly inhibitory activity
same,"Relative intensity, anti core-native gel, AVERAGE",[1]; Drug Concentration 0.1 μM,0.9537
same,"Relative intensity, anti core-native gel, individual samples",[1]; Drug Concentration 0.1 μM,0.8748 and 1.033
same,"Relative intensity, anti core-native gel, AVERAGE",[1]; Drug Concentration 0.2 μM,0.9345
same,"Relative intensity, anti core-native gel, individual samples",[1]; Drug Concentration 0.2 μM,0.9048 and 0.9643
same,"Relative intensity, anti core-native gel, AVERAGE",[1]; Drug Concentration 0.5 μM,0.8949
same,"Relative intensity, anti core-native gel, individual samples",[1]; Drug Concentration 0.5 μM,0.8127 and 0.9771
same,"Relative intensity, anti core-native gel, AVERAGE",[1]; Drug Concentration 1 μM,0.9182
same,"Relative intensity, anti core-native gel, individual samples",[1]; Drug Concentration 1 μM,0.8468 and 0.9896
same,"Relative intensity, anti core-native gel, AVERAGE",[1]; Drug Concentration 2 μM,0.8055
same,"Relative intensity, anti core-native gel, individual samples",[1]; Drug Concentration 2 μM,0.798 and 0.8131
same,"Relative intensity, anti core-native gel, AVERAGE",[1]; Drug Concentration 5 μM,0.9044
same,"Relative intensity, anti core-native gel, individual samples",[1]; Drug Concentration 5 μM,0.8531 and 0.9558
same,"Relative intensity, anti core-native gel, AVERAGE",[1]; Drug Concentration 10 μM,1.014
same,"Relative intensity, anti core-native gel, individual samples",[1]; Drug Concentration 10 μM,0.9919 and 1.036
Bay41–4109,total core protein,[2],decreased
